Experimental data as given in patent US20090325911A1, “Use of Androgens for the Treatment of Parkinson's Disease” (CARITAS ST. ELIZABETH MEDICAL CENTER OF BOSTON, INC., priority 2005, published 2009).
Read-outs that look alike come from different tables or passages of the source.

Key:
tyrosine hydroxylase [1] = conditions: untransfected CHP-212 cells, DHT 0-1000 nM, forty-eight hours
Experimental: (§1) Human CHP-212 cells were purchased from ATCC and maintained in cell culture media, EMEM/F-12 (50%/50%) containing 10% FBS and antibiotics. Native SH-SY5Y cells were maintained in DMEM supplemented with 10% FBS and antibiotics. For immunofluorescence, cells were grown on coverslips. […] Rat tyrosine hydroxylase-luc reporter plasmid (Kim et al Biochem Biophys Res Commun. 2003 Dec. 26; 312(4):950-7) and the pTK-Renilla luciferase plasmid for transfection control were obtained from Promega (Madison, Wis.). Human androgen receptor expression construct PCMV-Flag-AR was kindly provided by Dr. E. Wilson^75. H2O2 and DHT were purchased from Sigma (St. Louis, Mo.).
(§2) The procedures for western blotting and immunoprecipitation were described previously^48. […]

[2] = most potent of the male steroid hormones; cited from earlier work
AKT = conditions: 10 nM DHT
Experimental: DJ-1 likely serves as a transcriptional co-activator of androgen receptor^50,51. To determine whether androgen receptor and androgen activate the AKT pathway in human dopaminergic cell lines, native SH-SY5Y cells were treated with 10 nM of […], and levels of phosphorylated AKT was assayed by Western blot. […] The role of androgen receptor signaling in the activation of AKT was also tested in SH-SY5Y cells that were transiently transfected with human androgen receptor then treated with […].
as §1, §2

tyrosine hydroxylase [3] = conditions: CHP-212 cells pre-transfected with DJ-1-specific siRNA, increasing amount of DHT for forty-eight hours
Experimental: The procedures for western blotting and immunoprecipitation were described previously^48. For DJ-1 immunoprecipitation, cells were lysed in denaturing RIPA-DOC buffer (50 mm Tris-HCl buffer (pH 8.0), containing 150 mM NaCl, 1% Triton X-100, 0.1% SDS, 1% sodium deoxycholate, 10 mM EDTA and a protease inhibitor cocktail (1× protease cocktail, Roche (Indianapolis, Ind.). For endogenous DJ-1 and PSF co-immunoprecipitation, cells were lysed in non-denaturing lysis buffer containing 1% Triton-X100. […] Antibody used for immunoprecipitation: rabbit polyclonal anti-DJ-15. Antibodies for western blotting include: a mouse monoclonal anti-tyrosine hydroxylase (Sigma); monoclonal (Stressgen, San Diego, Calif.) and polyclonal anti-DJ-1; a goat anti-β-actin (Santa Cruz Biotechnology, Santa Cruz, Calif.); a rabbit polyclonal anti-androgen receptor (Upstate, Charlottesville, Va.); a rabbit polyclonal anti-AKT and a mouse monoclonal anti-Phospho-AKT (Cell signaling, Beverly, Mass.). Antibodies used for immunoprecipitation included a mouse monoclonal anti-PSF (Sigma) and a rabbit polyclonal anti-DJ-1^18.

CHP-212 cells = conditions: DJ-1 siRNA, 10 nM DHT, 300 μM H2O2
Experimental: Cells were re-plated and pretreated with 10 nM dihydroxytestosterone or vehicle control (ethanol) for twenty-four hours, followed by H2O2 (300 μM) treatment plus 10 nM dihydroxytestosterone or vehicle control for additional 24 hours. Cell toxicity was evaluated by MTT assay. Values are the mean±s.e.m. n=3 experiments; *: P=0.0068 (t-test).
To test whether dihydroxytestosterone can reverse this increased susceptibility, endogenous DJ-1 expression in CHP-212 cells was inhibited using DJ-1-specific siRNA. […] The siRNA treated cells were then further treated with 10 nM of dihydroxytestosterone in the presence or absence of 300 μM of H2O2.
CHP-212 cells or SH-SY5Y cells were plated in six-well culture dishes and transfected with 100 nM of siRNA against human DJ-1 constructs (SMARTpool reagent, Dharmacon, Lafayette, Colo.) or non-specific control siRNA constructs (siControl non-targeting pool, Dharmacon). […] Cells were harvested forty-eight hours post-transfection for RNA extraction or at Day 1,2, or 4 for Western blot or re-plated in 96 well plate for MTS assay at 48 hrs post-transfection.

Experimental for SH-SY5Y cells: FIG. 8A is a graph that quantifies relative cell viability in SH-SY5Y cells that were pretreated with dihydroxytestosterone (DHT) (1 or 10 nM) or vehicle control (Ethanol) for twenty-four hours, then were subjected to H2O2 (500 μM) treatment plus dihydroxytestosterone (1 or 10 nM) or vehicle control for an additional twenty-four hours. Cell toxicity was evaluated using a 3-(4,5-dimethylthiazol-2-yl)-2,5-diphenyltetrazolium bromide (MTT) assay. […] Cells were re-plated and pretreated with 10 nM dihydroxytestosterone or vehicle control (ethanol) for twenty-four hours, followed by H2O2 (300 μM) treatment plus 10 nM dihydroxytestosterone or vehicle control for additional 24 hours. Cell toxicity was evaluated by MTT assay. Values are the mean±s.e.m. n=3 experiments; *: P=0.0068 (t-test).
To evaluate whether dihydroxytestosterone similarly protects against oxidative stress-induced cell death in human dopaminergic neuroblastoma cells, SH-SY5Y cells were treated with increasing amount of dihydroxytestosterone in the presence or absence of 500 μM of hydrogen peroxide (H2O2). […] The siRNA treated cells were then further treated with 10 nM of dihydroxytestosterone in the presence or absence of 300 μM of H2O2.

SMILES: C[C@]12CCC(=O)C[C@@H]1CC[C@@H]1[C@@H]2CC[C@]2(C)[C@@H](O)CC[C@@H]12 [dihydroxytestosterone, dihydrotestosterone]
- tyrosine hydroxylase protein levels (tyrosine hydroxylase [1]): dose-dependent increase
- activity relative to testosterone [2]: 10 times
- time of peak level of phosphorylated AKT after treatment (AKT; SH-SY5Y cells transiently transfected with Flag-AR): 15 min
- time of peak level of phosphorylated AKT after treatment (AKT; native SH-SY5Y cells): ninety
- AKT phosphorylation (AKT; native SH-SY5Y cells, 5-90 minutes, no increase of total AKT): rapid phosphorylation of AKT
- cell death induced by oxidative stress (SH-SY5Y cells; DHT 1 or 10 nM pretreatment 24 h, then 500 μM H2O2 plus DHT 24 h): significantly blocked cell death
- effect on cell viability in the absence of H2O2 (SH-SY5Y cells; DHT 1 or 10 nM, no H2O2): subtle effect
- rescue of tyrosine hydroxylase expression after DJ-1 inactivation (tyrosine hydroxylase [3]): fully rescued
- oxidative stress-induced cell death in DJ-1-specific siRNA treated cells (CHP-212 cells): significantly reduced oxidative stress-induced cell death
